Two molecules from PMC10144222 (Marine Drugs, 2023) can be followed below.

One series deals with Cav2.2 channel (Homo sapiens, UniProt Q00975). Kind of series: cell-based. Type of series: cell-based.
The nature of a further series: in vitro. The conditions noted are these: human, serum.
A further series relates to tremor in mice. The conditions noted are these: mouse, in vivo.
Series [1] concerns coordinated locomotion in mice. The conditions noted are these: mouse, in vivo.
Series [2] is classed as physicochemical. The following applies: pH 7.4.

Chain of Cav2.2 channel (Q00975 whole entry, looked up): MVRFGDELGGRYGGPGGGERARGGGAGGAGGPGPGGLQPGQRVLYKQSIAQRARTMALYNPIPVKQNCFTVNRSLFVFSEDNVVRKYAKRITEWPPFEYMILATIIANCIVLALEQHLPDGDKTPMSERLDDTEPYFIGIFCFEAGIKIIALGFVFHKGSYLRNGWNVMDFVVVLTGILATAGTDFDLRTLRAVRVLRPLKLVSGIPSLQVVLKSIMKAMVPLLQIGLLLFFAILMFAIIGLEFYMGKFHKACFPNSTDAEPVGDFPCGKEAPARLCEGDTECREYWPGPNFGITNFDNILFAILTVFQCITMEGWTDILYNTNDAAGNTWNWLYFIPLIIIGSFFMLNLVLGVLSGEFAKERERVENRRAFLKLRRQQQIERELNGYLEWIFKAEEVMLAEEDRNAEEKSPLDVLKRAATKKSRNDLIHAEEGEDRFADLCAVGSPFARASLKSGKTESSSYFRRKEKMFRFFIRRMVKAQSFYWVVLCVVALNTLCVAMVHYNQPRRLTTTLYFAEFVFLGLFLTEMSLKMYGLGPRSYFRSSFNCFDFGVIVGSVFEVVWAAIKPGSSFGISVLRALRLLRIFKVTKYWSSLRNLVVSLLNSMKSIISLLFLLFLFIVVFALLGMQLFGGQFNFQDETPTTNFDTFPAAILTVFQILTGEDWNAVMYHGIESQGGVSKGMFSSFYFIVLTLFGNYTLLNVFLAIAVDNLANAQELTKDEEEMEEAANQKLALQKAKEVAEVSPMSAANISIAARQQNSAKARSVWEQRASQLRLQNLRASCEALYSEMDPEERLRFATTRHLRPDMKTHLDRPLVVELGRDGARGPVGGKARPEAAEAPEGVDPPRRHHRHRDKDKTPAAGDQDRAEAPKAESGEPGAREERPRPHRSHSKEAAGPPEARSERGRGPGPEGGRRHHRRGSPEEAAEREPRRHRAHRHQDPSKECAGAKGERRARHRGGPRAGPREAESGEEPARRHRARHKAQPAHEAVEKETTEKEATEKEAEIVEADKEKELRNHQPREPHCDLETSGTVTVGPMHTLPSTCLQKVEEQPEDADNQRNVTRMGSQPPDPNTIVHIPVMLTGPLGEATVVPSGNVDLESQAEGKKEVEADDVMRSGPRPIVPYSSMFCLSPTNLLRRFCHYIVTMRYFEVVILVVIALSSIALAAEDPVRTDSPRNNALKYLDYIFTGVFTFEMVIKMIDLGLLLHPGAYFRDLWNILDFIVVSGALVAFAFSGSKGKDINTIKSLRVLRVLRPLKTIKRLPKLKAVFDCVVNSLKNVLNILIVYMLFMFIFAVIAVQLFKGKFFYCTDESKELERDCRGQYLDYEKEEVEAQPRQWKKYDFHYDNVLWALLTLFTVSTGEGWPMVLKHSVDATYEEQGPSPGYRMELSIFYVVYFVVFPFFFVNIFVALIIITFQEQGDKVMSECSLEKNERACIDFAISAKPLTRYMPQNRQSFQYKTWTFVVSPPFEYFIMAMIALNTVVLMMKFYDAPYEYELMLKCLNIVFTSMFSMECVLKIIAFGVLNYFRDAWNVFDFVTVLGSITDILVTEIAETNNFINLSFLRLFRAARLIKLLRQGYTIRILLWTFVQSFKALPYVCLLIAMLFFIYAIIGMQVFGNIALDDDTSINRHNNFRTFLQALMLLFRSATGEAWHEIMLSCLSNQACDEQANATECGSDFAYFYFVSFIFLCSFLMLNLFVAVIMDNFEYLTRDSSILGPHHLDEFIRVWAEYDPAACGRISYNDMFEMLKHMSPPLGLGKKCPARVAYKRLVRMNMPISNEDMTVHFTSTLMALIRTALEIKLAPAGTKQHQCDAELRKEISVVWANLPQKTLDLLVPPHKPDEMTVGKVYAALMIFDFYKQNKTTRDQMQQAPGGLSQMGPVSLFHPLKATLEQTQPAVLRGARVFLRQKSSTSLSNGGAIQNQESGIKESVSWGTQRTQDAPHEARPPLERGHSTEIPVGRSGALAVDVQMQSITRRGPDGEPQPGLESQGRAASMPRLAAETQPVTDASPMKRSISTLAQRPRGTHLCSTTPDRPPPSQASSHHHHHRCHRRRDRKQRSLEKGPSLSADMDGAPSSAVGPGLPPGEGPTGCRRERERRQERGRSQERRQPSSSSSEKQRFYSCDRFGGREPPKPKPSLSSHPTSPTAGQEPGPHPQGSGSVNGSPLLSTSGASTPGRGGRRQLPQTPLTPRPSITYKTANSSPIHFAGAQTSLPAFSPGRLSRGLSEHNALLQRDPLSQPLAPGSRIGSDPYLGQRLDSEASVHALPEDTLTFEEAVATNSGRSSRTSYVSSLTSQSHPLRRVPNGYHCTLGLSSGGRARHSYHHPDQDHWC

Consider `CCCCCCCCCCCCCC(=O)N[C@H]1CSSC[C@@H]2NC(=O)[C@@H]3CSSC[C@@H](C(N)=O)NC(=O)[C@H](CCCCN)NC(=O)CNC(=O)[C@H](CO)NC(=O)[C@H](CCCNC(=N)N)NC(=O)[C@H](CSSC[C@H](NC(=O)[C@H](CCCCN)NC(=O)[C@H](C)NC(=O)CNC(=O)[C@H](CCCCN)NC(=O)CNC(=O)[C@H](CCCCN)NC1=O)C(=O)N[C@@H](CO)C(=O)N[C@@H](CCCNC(=N)N)C(=O)N[C@@H](CC(C)C)C(=O)N[C@@H](CCSC)C(=O)N[C@@H](Cc1ccc(O)cc1)C(=O)N[C@@H](CC(=O)O)C(=O)N3)NC(=O)[C@H](CO)NC(=O)CNC(=O)[C@H]([C@@H](C)O)NC2=O` [Myr-MVIIA], for which, at Cav2.2 channel, the IC50 (as a rule, the concentration needed to halve the response being measured) stood at 92.1 nM and the “reduction of ICa amplitude” value was found to be 66.83 ± 0.16%. Further, in the series “in vitro”, the share remaining (commonly the share of the starting amount still present when the sample was taken) at 24 h is 67.8%. Further, the “tremor intensity (4-point scale 0-3)” value in the series with tremor in mice is recorded as “no tremor symptoms”. Moreover, the “effect on coordinated locomotion” value in series [1] was “did not affect coordinated locomotion”.

Turning to `CSCC[C@@H]1NC(=O)[C@H](CC(C)C)NC(=O)[C@H](CCCNC(=N)N)NC(=O)[C@H](CO)NC(=O)[C@@H]2CSSC[C@@H]3NC(=O)[C@H](CO)NC(=O)CNC(=O)[C@H]([C@@H](C)O)NC(=O)[C@H](CSSC[C@H](N)C(=O)N[C@@H](CCCCN)C(=O)NCC(=O)N[C@@H](CCCCN)C(=O)NCC(=O)N[C@@H](C)C(=O)N[C@@H](CCCCN)C(=O)N2)NC(=O)[C@H](CSSC[C@@H](C(N)=O)NC(=O)[C@H](CCCCN)NC(=O)CNC(=O)[C@H](CO)NC(=O)[C@H](CCCNC(=N)N)NC3=O)NC(=O)[C@H](CC(=O)O)NC(=O)[C@H](Cc2ccc(O)cc2)NC1=O` [MVIIA, ω-conotoxin MVIIA, reference compound], the “particle size (dynamic light scattering)” value in series [2] stood at 48.74 ± 16.07 nm. Moreover, the “reduction of ICa amplitude” value on Cav2.2 channel came out at 100.00 ± 0.00%. In addition, in the series on tremor in mice, the “tremor intensity (4-point scale 0-3)” value is recorded as “highest tremor intensity at 30–60 min, after which it gradually decreased”. The “effect on coordinated locomotion” value in series [1] is “significant at 30–60 min and gradually decreased from 2 to 4 h”.
